Measurements as given in patent publication US20260250289A1, “BICYCLIC HETEROCYCLES AND THEIR USE AS WRN INHIBITORS” (Novartis AG, priority 2022, published 2026).

Assays:
[1] = biological target: T1, WRN helicase (aa N517-P1238) (Homo sapiens, UniProt Q14191); assay: WRN ATPase assay (DNA dependent ATP hydrolysis, ADP-Glo); format: biochemical; settings: 3 hours pre-incubation, 300 micromolar ATP, FLAP26 DNA; geometric mean of at least 2
T1 construct: The core helicase motif of the WRN protein (aa N517-P1238) was produced for this assay; His (N); ZZ (N); 3C protease cleavage site (N); made in house; host or cells: Sf21 insect cells (baculovirus; virus and BIICs made in SF9)
T1 sequence (Q14191 517-1238): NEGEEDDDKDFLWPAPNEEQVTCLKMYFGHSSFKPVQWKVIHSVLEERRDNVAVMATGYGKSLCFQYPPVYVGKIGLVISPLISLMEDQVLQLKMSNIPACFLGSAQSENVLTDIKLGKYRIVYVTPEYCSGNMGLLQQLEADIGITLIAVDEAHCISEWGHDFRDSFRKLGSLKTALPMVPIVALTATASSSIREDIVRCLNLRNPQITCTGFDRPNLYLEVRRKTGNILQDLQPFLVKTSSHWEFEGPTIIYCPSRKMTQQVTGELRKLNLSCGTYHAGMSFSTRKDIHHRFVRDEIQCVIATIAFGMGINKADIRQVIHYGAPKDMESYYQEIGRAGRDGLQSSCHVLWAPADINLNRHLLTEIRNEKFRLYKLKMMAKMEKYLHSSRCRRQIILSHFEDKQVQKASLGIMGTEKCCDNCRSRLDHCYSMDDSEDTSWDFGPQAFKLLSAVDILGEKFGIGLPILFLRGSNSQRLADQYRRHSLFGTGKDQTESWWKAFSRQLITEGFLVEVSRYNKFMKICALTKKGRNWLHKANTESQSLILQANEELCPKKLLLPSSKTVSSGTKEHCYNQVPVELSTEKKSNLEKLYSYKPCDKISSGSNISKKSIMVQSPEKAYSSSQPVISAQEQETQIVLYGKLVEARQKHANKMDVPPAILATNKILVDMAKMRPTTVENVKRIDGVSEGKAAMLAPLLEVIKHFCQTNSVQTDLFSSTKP
Method in brief: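 DNA-dependent ATP hydrolysis detected as ADP by ADP-Glo luminescence, using 300 μM ATP, 0.2 nM FLAP26 substrate and 10 nM WRN aa N517-P1238 (Tris pH 7.5 buffer, 2 mM MgCl2, 50 mM NaCl). IC50s fitted from normalized duplicate half-log dilutions; reported as geometric means of at least 2 replicates.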

DLD1-WRN-KO cells = assay: Proliferation assay DLD1-WRN-KO (CellTiterGlo, off-target effects); format: cell-based; settings: 96 hours, geometric mean of at least 2
Method in brief: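 DLD1 cells with CRISPR knockout of WRN were exposed overnight-seeded to eight 3-fold compound dilutions (0.1% DMSO) for 96 h at 37 °C. Viability was read as ATP by CellTiterGlo luminescence against a day-0 plate, giving GI50 and residual viability at top concentration.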

SW48 cells = assay: Proliferation assay SW48 (CellTiterGlo); format: cell-based; settings: Homo sapiens, SW48, 96 h, SW48 colon carcinoma cells, 96 hours, CellTiterGlo; geometric mean of at least 2; read-out: Proliferation Assay SW48 GI50
Method in brief: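 Read-out is CellTiterGlo luminescence after 96 hours of compound exposure, with % growth calculated against day-0 and vehicle-treated ATP levels. SW48 seeded at 2,000 cells/well, dosed next day with eight 3-fold serial dilutions, 0.1% DMSO. GI50 reported as geometric mean, at least 2 replicates.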

CC(=O)N1CCN(c2c(C)n(CC(=O)Nc3ccc(C(F)(F)F)cc3)c3nc(C4=CCC(F)(F)CC4)nn3c2=O)CC1 [Example 118, 2-(6-(4-acetylpiperazin-1-yl)-2-(4,4-difluorocyclohex-1-en-1-yl)-5-methyl-7-oxo-[1,2,4]triazolo[1,5-a]pyrimidin-4(7H)-yl)-N-(4-(trifluoromethyl)phenyl)acetamide]
IC50 [1]: 600 nM | GI50 (DLD1-WRN-KO cells): > 10 µM | GI50 (SW48 cells): 9000 nM

CC(=O)N1CCN(c2c(C)n(CC(=O)Nc3ccc(C(F)(F)F)cc3Br)c3nc(C4=CCOCC4)nn3c2=O)CC1 [Example 32, 2-(6-(4-acetylpiperazin-1-yl)-2-(3,6-dihydro-2H-pyran-4-yl)-5-methyl-7-oxo-[1,2,4]triazolo[1,5-a]pyrimidin-4(7H)-yl)-N-(2-bromo-4-(trifluoromethyl)phenyl)acetamide]
IC50 [1]: 800 nM | GI50 (DLD1-WRN-KO cells): > 10 µM | GI50 (SW48 cells): 3000 nM

CC(=O)N1C2CCC1CN(c1c(C)n(CC(=O)Nc3ccc(C(F)(F)F)cc3)c3nc(C4=CCOCC4)nn3c1=O)C2 [Example 161, 2-(6-(8-acetyl-3,8-diazabicyclo[3.2.1]octan-3-yl)-2-(3,6-dihydro-2H-pyran-4-yl)-5-methyl-7-oxo-[1,2,4]triazolo[1,5-a]pyrimidin-4(7H)-yl)-N-(4-(trifluoromethyl)phenyl)acetamide]
IC50 [1]: 700 nM | GI50 (DLD1-WRN-KO cells): > 10 µM | GI50 (SW48 cells): 5000 nM

CCc1c(N2CCN(C(=O)c3ccnc(C)c3O)CC2)c(=O)n2nc(C3=CCOCC3)nc2n1CC(=O)Nc1ccc(C(F)(F)F)cc1Cl [Example 49, N-(2-chloro-4-(trifluoromethyl)phenyl)-2-(2-(3,6-dihydro-2H-pyran-4-yl)-5-ethyl-6-(4-(3-hydroxy-2-methylisonicotinoyl)piperazin-1-yl)-7-oxo-[1,2,4]triazolo[1,5-a]pyrimidin-4(7H)-yl)acetamide]
IC50 [1]: 200 nM | GI50 (DLD1-WRN-KO cells): > 10 µM | GI50 (SW48 cells): 500 nM

COCC1CCN(c2nc3n(CC(=O)Nc4ccc(C(F)(F)F)cc4)c(C)c(N4CCN(C(C)=O)CC4)c(=O)n3n2)C1 (stereo not drawn) [Example 133, 2-(6-(4-acetylpiperazin-1-yl)-2-(3-(methoxymethyl)pyrrolidin-1-yl)-5-methyl-7-oxo-[1,2,4]triazolo[1,5-a]pyrimidin-4(7H)-yl)-N-(4-(trifluoromethyl)phenyl)acetamide]
IC50 [1]: 2000 nM | GI50 (DLD1-WRN-KO cells): > 10 µM | GI50 (SW48 cells): 6000 nM

[2H]C([2H])(C(=O)Nc1ccc(C(F)(F)F)cc1)n1c(CC)c(N2CCN(C(C)=O)CC2)c(=O)n2nc(C3=CCOCC3)nc12 [Example 82, 2-(6-(4-acetylpiperazin-1-yl)-2-(3,6-dihydro-2H-pyran-4-yl)-5-ethyl-7-oxo-[1,2,4]triazolo[1,5-a]pyrimidin-4(7H)-yl)-N-(4-(trifluoromethyl)phenyl)acetamide-2,2-d2]
IC50 [1]: 300 nM | GI50 (DLD1-WRN-KO cells): > 10 µM | GI50 (SW48 cells): 2000 nM

CC(=O)N1CCN(c2c(C)n(CC(=O)Nc3ccc(C(F)(F)F)cc3)c3nc(N4CC=CCC4)nn3c2=O)CC1 [Example 121, 2-(6-(4-acetylpiperazin-1-yl)-2-(3,6-dihydropyridin-1(2H)-yl)-5-methyl-7-oxo-[1,2,4]triazolo[1,5-a]pyrimidin-4(7H)-yl)-N-(4-(trifluoromethyl)phenyl)acetamide]
IC50 [1]: 700 nM | GI50 (DLD1-WRN-KO cells): > 10 µM | GI50 (SW48 cells): 5000 nM

CC(=O)N1CCN(c2c(C)n(CC(=O)Nc3ccc(C(F)(F)F)cc3F)c3nc(C4=CCOCC4)nn3c2=O)CC1 [Example 85, 2-(6-(4-acetylpiperazin-1-yl)-2-(3,6-dihydro-2H-pyran-4-yl)-5-methyl-7-oxo-[1,2,4]triazolo[1,5-a]pyrimidin-4(7H)-yl)-N-(2-fluoro-4-(trifluoromethyl)phenyl)acetamide]
IC50 [1]: 500 nM | GI50 (DLD1-WRN-KO cells): > 10 µM | GI50 (SW48 cells): 4000 nM

COc1cccc(C(=O)N2CCN(c3c(C)n(CC(=O)Nc4ccc(C(F)(F)F)cc4)c4nc(C5=CCOCC5)nn4c3=O)CC2)c1N [Example 155, 2-(6-(4-(2-amino-3-methoxybenzoyl)piperazin-1-yl)-2-(3,6-dihydro-2H-pyran-4-yl)-5-methyl-7-oxo-[1,2,4]triazolo[1,5-a]pyrimidin-4(7H)-yl)-N-(4-(trifluoromethyl)phenyl)acetamide]
IC50 [1]: 100 nM | GI50 (DLD1-WRN-KO cells): > 10 µM | GI50 (SW48 cells): 2000 nM

CCc1c(N2CCN(C(=O)c3ccnc(C)c3O)CC2)c(=O)n2nc(C3=CCOCC3)nc2n1CC(=O)Nc1ccc(C(F)(F)F)cc1C [Example 47, 2-(2-(3,6-dihydro-2H-pyran-4-yl)-5-ethyl-6-(4-(3-hydroxy-2-methylisonicotinoyl)piperazin-1-yl)-7-oxo-[1,2,4]triazolo[1,5-a]pyrimidin-4(7H)-yl)-N-(2-methyl-4-(trifluoromethyl)phenyl)acetamide]
IC50 [1]: 90 nM | GI50 (DLD1-WRN-KO cells): > 10 µM | GI50 (SW48 cells): 900 nM

Cc1c(N2CCN(C(=O)c3ccc(F)c(F)c3O)CC2)c(=O)n2nc(C3=CCOCC3)nc2n1CC(=O)Nc1ccc(C(F)(F)F)cc1 [Example 16, 2-(6-(4-(3,4-difluoro-2-hydroxybenzoyl)piperazin-1-yl)-2-(3,6-dihydro-2H-pyran-4-yl)-5-methyl-7-oxo-[1,2,4]triazolo[1,5-a]pyrimidin-4(7H)-yl)-N-(4-(trifluoromethyl)phenyl)acetamide]
IC50 [1]: 50 nM | GI50 (DLD1-WRN-KO cells): > 10 µM | GI50 (SW48 cells): 500 nM

CC(=O)N1CCN(c2c(C)n(CC(=O)Nc3ccc(C(F)(F)F)cc3)c3nc(N4CCC5(CCCO5)CC4)nn3c2=O)CC1 [Example 122, 2-(6-(4-acetylpiperazin-1-yl)-5-methyl-7-oxo-2-(1-oxa-8-azaspiro[4.5]decan-8-yl)-[1,2,4]triazolo[1,5-a]pyrimidin-4(7H)-yl)-N-(4-(trifluoromethyl)phenyl)acetamide]
IC50 [1]: 700 nM | GI50 (DLD1-WRN-KO cells): > 10 µM | GI50 (SW48 cells): 5000 nM

CCc1c(N2CCN(C(=O)c3ncc4c(c3O)OCC4)CC2)c(=O)n2nc(C3=CCOCC3)nc2n1CC(=O)Nc1ccc(C(F)(F)F)cc1Cl [Example 11, N-(2-chloro-4-(trifluoromethyl)phenyl)-2-(2-(3,6-dihydro-2H-pyran-4-yl)-5-ethyl-6-(4-(7-hydroxy-2,3-dihydrofuro[3,2-c]pyridine-6-carbonyl)piperazin-1-yl)-7-oxo-[1,2,4]triazolo[1,5-a]pyrimidin-4(7H)-yl)acetamide]
IC50 [1]: 50 nM | GI50 (DLD1-WRN-KO cells): > 10 µM | GI50 (SW48 cells): 60 nM

Cc1c(N2CCN(C(=O)c3ccnc(F)c3O)CC2)c(=O)n2nc(C3=CCOCC3)nc2n1CC(=O)Nc1ccc(C(F)(F)F)cc1 [Example 19, 2-(2-(3,6-dihydro-2H-pyran-4-yl)-6-(4-(2-fluoro-3-hydroxyisonicotinoyl)piperazin-1-yl)-5-methyl-7-oxo-[1,2,4]triazolo[1,5-a]pyrimidin-4(7H)-yl)-N-(4-(trifluoromethyl)phenyl)acetamide]
IC50 [1]: 60 nM | GI50 (DLD1-WRN-KO cells): > 10 µM | GI50 (SW48 cells): > 10000 nM

CCc1c(N2CCN(C(=O)c3nccc4cccc(O)c34)CC2)c(=O)n2nc(C3=CCOCC3)nc2n1CC(=O)Nc1ccc(C(F)(F)F)cc1C [Example 50, 2-(2-(3,6-dihydro-2H-pyran-4-yl)-5-ethyl-6-(4-(8-hydroxyisoquinoline-1-carbonyl)piperazin-1-yl)-7-oxo-[1,2,4]triazolo[1,5-a]pyrimidin-4(7H)-yl)-N-(2-methyl-4-(trifluoromethyl)phenyl)acetamide]
IC50 [1]: 300 nM | GI50 (DLD1-WRN-KO cells): > 10 µM | GI50 (SW48 cells): 1000 nM

CC(=O)N1CCN(c2c(C)n(CC(=O)Nc3cc(Cl)c(C(F)(F)F)nc3C)c3nc(C4=CCOCC4)nn3c2=O)CC1 [Example 87, 2-(6-(4-acetylpiperazin-1-yl)-2-(3,6-dihydro-2H-pyran-4-yl)-5-methyl-7-oxo-[1,2,4]triazolo[1,5-a]pyrimidin-4(7H)-yl)-N-(5-chloro-2-methyl-6-(trifluoromethyl)pyridin-3-yl)acetamide]
IC50 [1]: 500 nM | GI50 (DLD1-WRN-KO cells): > 10 µM | GI50 (SW48 cells): 4000 nM

CC(=O)N1CCN(c2c(C(C)C)n(CC(=O)Nc3ccc(C(F)(F)F)cc3)c3nc(C4=CCOCC4)nn3c2=O)CC1 [Example 162, 2-(6-(4-acetylpiperazin-1-yl)-2-(3,6-dihydro-2H-pyran-4-yl)-5-isopropyl-7-oxo-[1,2,4]triazolo[1,5-a]pyrimidin-4(7H)-yl)-N-(4-(trifluoromethyl)phenyl)acetamide]
IC50 [1]: 900 nM | GI50 (DLD1-WRN-KO cells): > 10 µM | GI50 (SW48 cells): 3000 nM

CC(=O)N1CCN(c2c(C)n(CC(=O)Nc3ccc(S(F)(F)(F)(F)F)cc3C)c3nc(C4=CCOCC4)nn3c2=O)CC1 [Example 62, 2-(6-(4-acetylpiperazin-1-yl)-2-(3,6-dihydro-2H-pyran-4-yl)-5-methyl-7-oxo-[1,2,4]triazolo[1,5-a]pyrimidin-4(7H)-yl)-N-(2-methyl-4-(pentafluoro-l6-sulfaneyl)phenyl)acetamide]
IC50 [1]: 500 nM | GI50 (DLD1-WRN-KO cells): > 10 µM | GI50 (SW48 cells): 1000 nM
